Laboratory results published in US8822449B2, “Substituted aminoindanes and analogs thereof, and the pharmaceutical use thereof” (Sanofi, priority 2008, dated 2014).

Target: T1, sodium-proton exchanger of subtype 3 (NHE3) (Homo sapiens, UniProt P48764)
T1 construct: expressed in transfected cells
T1 sequence (P48764 26-834): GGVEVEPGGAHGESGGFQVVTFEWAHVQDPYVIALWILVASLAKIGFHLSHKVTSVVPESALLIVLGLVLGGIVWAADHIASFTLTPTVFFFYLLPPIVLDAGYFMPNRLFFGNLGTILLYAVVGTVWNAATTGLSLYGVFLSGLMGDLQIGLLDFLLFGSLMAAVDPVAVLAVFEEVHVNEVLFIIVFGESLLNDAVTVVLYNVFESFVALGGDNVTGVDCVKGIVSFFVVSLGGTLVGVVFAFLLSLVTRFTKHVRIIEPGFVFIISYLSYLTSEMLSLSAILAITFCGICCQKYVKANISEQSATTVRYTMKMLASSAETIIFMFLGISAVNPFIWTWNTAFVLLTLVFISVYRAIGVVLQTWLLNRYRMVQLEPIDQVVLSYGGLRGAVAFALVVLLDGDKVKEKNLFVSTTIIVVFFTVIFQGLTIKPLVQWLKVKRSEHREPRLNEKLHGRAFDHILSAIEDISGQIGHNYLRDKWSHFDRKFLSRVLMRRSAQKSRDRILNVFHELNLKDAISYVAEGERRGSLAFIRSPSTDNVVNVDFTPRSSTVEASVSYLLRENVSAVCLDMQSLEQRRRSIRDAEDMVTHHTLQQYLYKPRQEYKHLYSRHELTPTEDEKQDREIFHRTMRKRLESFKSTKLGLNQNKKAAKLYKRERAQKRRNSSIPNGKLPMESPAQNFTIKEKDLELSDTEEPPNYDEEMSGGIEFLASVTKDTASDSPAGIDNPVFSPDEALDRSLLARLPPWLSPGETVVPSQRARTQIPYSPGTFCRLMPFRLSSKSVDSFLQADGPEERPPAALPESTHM
Assay: Recovery of intracellular pH (pHi) after acidification in LAP1 cells stably expressing NHE3 (BCECF fluorescence, FLIPR)
Type: cell-based
Settings: LAP1 cells stably expressing NHE3; pH recovery after acidification; range 1 is % inhibition at 10 μM; read-out: Activity range (inhibitory effect on NHE3)

Cc1noc(C)c1-c1ccc(O[C@H]2c3ccccc3C[C@@H]2N2CCCC2)cc1 [Example 407, 3,5-dimethyl-4-[4-(trans-(1S,2S)-2-pyrrolidin-1-ylindan-1-yloxy)phenyl]-isoxazole]
IC50: < 1000 nM

N[C@H]1CCCN([C@H]2CCc3ccccc3[C@@H]2Oc2ccc(Br)cc2-c2cc[nH]n2)C1 (racemic) [Example 203, (S)-1-{rac-trans-(1,2)-1-[4-bromo-2-(1H-pyrazol-3-yl)phenoxy]-1,2,3,4-tetrahydronaphthalen-2-yl}piperidin-3-ylamine]
inhibition at 10 µM: 20 to 50%

CS(=O)(=O)c1ccc(O[C@H]2c3cc(Cl)cc(Cl)c3C[C@@H]2N2CC[C@@H](N)C2)cc1 [Example 104, (R)-1-[trans-(1S,2S)-4,6-dichloro-1-(4-methanesulfonylphenoxy)indan-2-yl]pyrrolidin-3-ylamine]
IC50: < 1000 nM

Cc1nnc(C)n1-c1ccc(O[C@H]2c3ccccc3C[C@@H]2N2CCCC2)c(C(F)(F)F)c1 [Example 406, 3,5-dimethyl-4-[4-(trans-(1S,2S)-2-pyrrolidin-1-ylindan-1-yloxy)-3-trifluoromethylphenyl]-4H-[1,2,4]triazole]
IC50: < 1000 nM

N[C@@H]1CCCN([C@H]2CCc3ccccc3[C@@H]2Oc2cccc3ncccc23)C1 (racemic) [Example 89, (R)-1-[rac-trans-(1,2)-1-(quinolin-5-yloxy)-1,2,3,4-tetrahydronaphthalen-2-yl]piperidin-3-ylamine]
IC50: 1000 to 10000 nM

N#Cc1ccc(-c2ccc(O[C@H]3c4ccccc4CC[C@@H]3N3CCC[C@@H](N)C3)cc2)cc1 (racemic) [Example 517, 4′-[rac-trans-(1,2)-2-((R)-3-aminopiperidin-1-yl)-1,2,3,4-tetrahydronaphthalen-1-yloxy]-biphenyl-4-carbonitrile]
inhibition at 10 µM: 20 to 50%

CS(=O)(=O)c1ccc(O[C@H]2c3cc(F)cc(Cl)c3C[C@@H]2N2CCCC2)cc1 (racemic) [Example 284, 1-[rac-trans-(1,2)-4-chloro-6-fluoro-1-(4-methanesulfonylphenoxy)indan-2-yl]pyrrolidine]
IC50: 1000 to 10000 nM

CC(C)[C@H]1COC(=O)N1c1ccc(Cl)c(O[C@H]2c3cc(Cl)cc(F)c3C[C@@H]2N2CC[C@@H](O)C2)c1 [Example 211, (S)-3-{4-chloro-3-[(1S,2S)-6-chloro-4-fluoro-2((R)-3-hydroxypyrrolidin-1-yl)indan-1-yloxy]phenyl}-4-isopropyloxazolidin-2-one]
inhibition at 10 µM: 20 to 50%

CC(=O)Nc1cccc(O[C@H]2c3cc(Cl)cc(Cl)c3C[C@@H]2N(C)C)c1 (racemic) [Example 645, N-[3-(rac-trans-(1,2)-4,6-dichloro-2-dimethylaminoindan-1-yloxy)phenyl]acetamide]
IC50: 1000 to 10000 nM

N[C@@H]1CCCN([C@H]2CCc3ccccc3[C@@H]2Oc2cnc3ccccc3c2)C1 (racemic) [Example 87, (R)-1-[rac-trans-(1,2)-1-(quinolin-3-yloxy)-1,2,3,4-tetrahydronaphthalen-2-yl]piperidin-3-ylamine]
inhibition at 10 µM: 20 to 50%

CC(=O)Nc1cccc(O[C@H]2c3cc(Cl)ccc3C[C@@H]2N2CCCC2)c1 (racemic) [Example 658, N-[3-(rac-trans-(1,2)-6-chloro-2-pyrrolidin-1-ylindan-1-yloxy)phenyl]acetamide]
IC50: < 1000 nM

NS(=O)(=O)c1ccc(O[C@H]2c3cc(Cl)cc(Cl)c3C[C@@H]2N2CCOCC2)c(Cl)c1Cl (racemic) [Example 358, 2,3-dichloro-4-(rac-trans-(1,2)-4,6-dichloro-2-morpholin-4-ylindan-1-yloxy)benzenesulfonamide]
IC50: 1000 to 10000 nM

N[C@@H]1CCCN([C@@H]2Cc3ccccc3[C@H]2Oc2ccc(-n3ccnc3)cc2)C1 (racemic) [Example 72, (R)-1-[rac-trans-(1,2)-1-(4-imidazol-1-ylphenoxy)indan-2-yl]piperidin-3-ylamine]
IC50: < 1000 nM

CSc1ccc(O[C@H]2c3ccccc3CC[C@@H]2N2CCC[C@H](N)C2)cc1 (racemic) [Example 183, (S)-1-[rac-trans-(1,2)-1-(4-methylsulfanylphenoxy)-1,2,3,4-tetrahydronaphthalen-2-yl]piperidin-3-ylamine]
inhibition at 10 µM: 20 to 50%

CC1(C)NC(=O)N(c2ccc(F)c(O[C@H]3c4cc(Cl)cc(Cl)c4C[C@@H]3N3CC[C@@H](O)C3)c2)C1=O [Example 416, 3-{3-[(1S,2S)-4,6-dichloro-2-((R)-3-hydroxypyrrolidin-1-yl)indan-1-yloxy]-4-fluorophenyl}-5,5-dimethylimidazolidine-2,4-dione]
IC50: 1000 to 10000 nM

CC1(C)OC(=O)N(c2ccc(Cl)c(O[C@H]3c4cc(Cl)cc(Cl)c4C[C@@H]3N3CC[C@@H](O)C3)c2)C1=O [Example 432, 3-{4-chloro-3-[(1S,2S)-4,6-dichloro-2-((R)-3-hydroxypyrrolidin-1-yl)indan-1-yloxy]phenyl}-5,5-dimethyloxazolidine-2,4-dione]
IC50: 1000 to 10000 nM

c1ccc2c(c1)C[C@@H](N1C[C@H]3CNC[C@H]3C1)[C@@H]2Oc1ccc(N2CCNCC2)cc1 (racemic) [Example 17, 2-[rac-trans-(1,2)-1-(4-piperazin-1-ylphenoxy)indan-2-yl]octahydropyrrolo[3,4-c]pyrrole]
IC50: 1000 to 10000 nM

CN1CCN(c2ccc(Cl)c(O[C@H]3c4cc(Cl)cc(F)c4C[C@@H]3N3CC[C@@H](O)C3)c2)C1=O [Example 340, 1-{4-chloro-3-[(1S,2S)-6-chloro-4-fluoro-2-((R)-3-hydroxypyrrolidin-1-yl)indan-1-yloxy]phenyl}-3-methylimidazolidin-2-one]
IC50: < 1000 nM

Cc1cccc(Cl)c1O[C@H]1c2ccccc2CC[C@@H]1N1CCC[C@@H](N)C1 (racemic) [Example 39, (R)-1-[rac-trans-(1,2)-1-(2-chloro-6-methylphenoxy)-1,2,3,4-tetrahydronaphthalen-2-yl]piperidin-3-ylamine]
inhibition at 10 µM: 20 to 50%

N#Cc1ccc(O[C@@H]2c3ccccc3C[C@H]2N2CCC(N)C2)c(Cl)c1 (mixture of isomers) [Example 543, 4-[rac-trans-(1,2)-2-(3-aminopyrrolidin-1-yl)indan-1-yloxy]-3-chlorobenzonitrile]
IC50: 1000 to 10000 nM

CS(=O)(=O)c1ccc(O[C@H]2c3ccccc3C[C@@H]2N2CCC[C@@H](NCCC(F)(F)F)C2)cc1 [Example 220, {(R)-1-[trans-(1S,2S)-1-(4-methanesulfonylphenoxy)indan-2-yl]piperidin-3-yl}-(3,3,3-trifluoropropyl)amine]
IC50: < 1000 nM

CS(=O)(=O)c1ccc(O[C@H]2c3cc(Cl)cc(Cl)c3C[C@@H]2N2CCC(N)(C(F)(F)F)C2)cc1 (mixture of isomers) [Example 302, 1-[trans-(1S,2S)-4,6-dichloro-1-(4-methanesulfonylphenoxy)indan-2-yl]-3-trifluoromethylpyrrolidin-3-ylamine]
inhibition at 10 µM: 20 to 50%

N#Cc1ccc(O[C@@H]2c3ccccc3C[C@H]2N2C[C@H]3CNC[C@H]3C2)cc1Cl (racemic) [Example 393, 2-chloro-4-[rac-trans-(1,2)-2-(hexahydropyrrolo[3,4-c]pyrrol-2-yl)indan-1-yloxy]benzonitrile]
IC50: 1000 to 10000 nM

COc1cc(O[C@H]2c3ccccc3CC[C@@H]2N2CCC[C@@H](N)C2)ccc1Br (racemic) [Example 63, (R)-1-[rac-trans-(1,2)-1-(4-bromo-3-methoxyphenoxy)-1,2,3,4-tetrahydronaphthalen-2-yl]piperidin-3-ylamine]
inhibition at 10 µM: 20 to 50%

O=C1CNC(=O)N1c1ccc(O[C@H]2c3cc(Cl)cc(Cl)c3C[C@@H]2N2CC[C@@H](O)C2)cc1 [Example 426, 3-{4-[(1S,2S)-4,6-dichloro-2-((R)-3-hydroxypyrrolidin-1-yl)indan-1-yloxy]phenyl}imidazolidine-2,4-dione]
IC50: < 1000 nM

Cc1nnc(C)n1-c1ccc(C(=O)O[C@H]2c3cc(Cl)cc(Cl)c3C[C@@H]2N2CC[C@@H](O)C2)c(Cl)c1 [Example 710, 2-Chloro-4-(3,5-dimethyl-[1,2,4]triazol-4-yl)-benzoic acid trans-(1S,2S)-4,6-dichloro-2-((R)-3-hydroxy-pyrrolidin-1-yl)-indan-1-yl ester]
IC50: 1000 to 10000 nM

O=C1CNC(=O)N1c1ccc(O[C@H]2c3cc(Cl)cc(F)c3C[C@@H]2NC2CCCC2)c(F)c1 [Example 753, 3-[4-(trans-(1S,2S)-6-Chloro-2-cyclopentylamino-4-fluoro-indan-1-yloxy)-3-fluoro-phenyl]-imidazolidine-2,4-dione]
IC50: 1000 to 10000 nM

NC(=O)Nc1cccc(O[C@@H]2c3ccccc3C[C@H]2N2CCC(N)C2)c1 (mixture of isomers) [Example 234, {3-[rac-trans-(1,2)-2-(3-aminopyrrolidin-1-yl)indan-1-yloxy]phenyl}urea]
IC50: 1000 to 10000 nM

Cc1nnc(C(C)C)n1-c1ccc(O[C@H]2c3cc(Cl)cc(Cl)c3C[C@@H]2N2CC[C@@H](O)C2)cc1 [Example 715, (R)-1-{trans-(1S,2S)-4,6-Dichloro-1-[4-(3-isopropyl-5-methyl-[1,2,4]triazol-4-yl)-phenoxy]-indan-2-yl}-pyrrolidin-3-ol]
IC50: < 1000 nM
